Some test systems named below: HL-60(TB) leukemia; MALME-3M melanoma; EKVX NSCLC; OVCAR-3 ovarian; NCI-H23 lung; KM12 colon; SK-MEL-28 melanoma; A498 renal; UACC-62 melanoma; HCT-116 colon.
Common to all, as to test: NCI-60 cell line screen, 48 h

“And” between values parts separate entries of the source, which are not always exact repeats. Identical values can stand only once.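 How tested: cells in 96-well plates exposed to compound for 48 hours at five concentrations. Abbreviation: GI50, concentration required for 50% inhibition of growth. The concentration for full growth arrest is given as TGI.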 Where a SMILES comes first, the peptide text is derived from it. [ ]: non-standard residue; d: D form. The star is where a group is joined. ξ: configuration not given here. NMeN = CN[C@@H](CC(N)=O)C(=O)O; NMeV = CN[C@H](C(=O)O)C(C)C; ξNMeV = CNC(C(=O)O)C(C)C; Boc = CC(C)(C)OC(=O)*; ξNMeA = CNC(C)C(=O)O

The values below come from PubChem BioAssay (NCI).

As to `CCCN1CCN(c2ccc3nc(-c4ccc5nc(-c6cc(OC)ccc6OC)[nH]c5c4)[nH]c3c2)CC1`, the GI50 with HL-60(TB) leukemia is 3.12 µM; in the assay with MALME-3M melanoma it was 20.3 µM; with EKVX NSCLC it was 1.81 µM; in the assay with OVCAR-3 ovarian it was 1.84 µM; in the assay on NCI-H23 lung it was 1.93 µM; in the assay on KM12 colon, 1.86 µM. Besides, the GI50 was 18.9 µM in the assay with SK-MEL-28 melanoma, 15.6 µM with A498 renal, 19 µM in the assay with UACC-62 melanoma and 1.74 µM in the assay on HCT-116 colon. The TGI with HL-60(TB) leukemia was 8.91 µM; with MALME-3M melanoma, 40.9 µM; with EKVX NSCLC, 3.35 µM; in the assay on OVCAR-3 ovarian, 3.39 µM; in the assay on NCI-H23 lung, 3.85 µM; in the assay on KM12 colon it was 3.46 µM. Moreover, the TGI is 35.9 µM in the assay with SK-MEL-28 melanoma, 30.4 µM with A498 renal, 34.7 µM with UACC-62 melanoma and 3.16 µM in the assay with HCT-116 colon.
Consider `COC(=O)C12C3C4C5C3(C#N)C1C5(C(=O)OC)C42C(=O)N(C(C)C)C(C)C` (centres undefined), for which the TGI in the assay with HL-60(TB) leukemia is above 60 µM; with MALME-3M melanoma, above 100 µM; in the assay with EKVX NSCLC, above 100 µM; in the assay on OVCAR-3 ovarian it was above 100 µM; in the assay on NCI-H23 lung, above 100 µM; in the assay on KM12 colon, above 100 µM. Further, the TGI with SK-MEL-28 melanoma, in the assay with A498 renal, in the assay with UACC-62 melanoma and with HCT-116 colon was above 100 µM in each case.
On to `C1CCN(C2OC3C(COC3N3CCCCC3)OC2OC2CCO[C@@H]2N2CCCCC2)CC1` (some centres undefined), for which the TGI in the assay on HL-60(TB) leukemia was 67.8 µM; in the assay with MALME-3M melanoma, 83.2 µM; in the assay on EKVX NSCLC, above 100 µM; with OVCAR-3 ovarian it was 89.3 µM; in the assay with NCI-H23 lung it was 78.6 µM; in the assay on KM12 colon, above 100 µM. For the same compound, the TGI was above 100 µM in the assay with SK-MEL-28 melanoma, above 100 µM in the assay on A498 renal, 41.8 µM with UACC-62 melanoma and above 100 µM in the assay on HCT-116 colon.
As to `COC(=O)C(C)N(C)C(=O)[C@H](CC(N)=O)N(C)C(=O)[C@@H]1CCCN1C(=O)[C@H](C(C)C)N(C)C(=O)C(C(C)C)N(C)C(=O)[C@@H](NC(=O)OC(C)(C)C)C(C)C` (some centres undefined) (Boc-V[ξNMeV][NMeV]P[NMeN][ξNMeA]-OMe), the GI50 is above 100 µM with HL-60(TB) leukemia; 16.9 µM with EKVX NSCLC; above 100 µM with OVCAR-3 ovarian; above 100 µM in the assay on SK-MEL-28 melanoma; above 100 µM in the assay on A498 renal; above 100 µM in the assay with UACC-62 melanoma. For the same compound, the GI50 in the assay with HCT-116 colon was 39.3 µM. Also, the TGI was 50 µM and > 100 µM in the assay with HL-60(TB) leukemia; above 100 µM with MALME-3M melanoma; > 50 µM and 35.3 µM in the assay on EKVX NSCLC; above 100 µM in the assay on OVCAR-3 ovarian; above 50 µM with NCI-H23 lung; above 100 µM with KM12 colon. Besides, the TGI in the assay on SK-MEL-28 melanoma is above 100 µM; in the assay on A498 renal, above 100 µM; in the assay on UACC-62 melanoma, above 100 µM; in the assay with HCT-116 colon, 50 µM and > 100 µM.
For the compound `Cc1cccc(Cl)c1NC(=O)/C=C/c1ccccc1`, the TGI with HL-60(TB) leukemia, in the assay with MALME-3M melanoma, in the assay on EKVX NSCLC, with OVCAR-3 ovarian, in the assay on NCI-H23 lung and in the assay with KM12 colon was above 100 µM each time. Moreover, the TGI in the assay on SK-MEL-28 melanoma, in the assay with A498 renal, in the assay on UACC-62 melanoma and in the assay on HCT-116 colon was above 100 µM each time.
As to `COc1ccc2c(c1)OC1=C(C(=O)OC1)C2c1cc(OC)c(OC)c(OC)c1` (centres undefined), the GI50 with HL-60(TB) leukemia is 0.256 µM; with MALME-3M melanoma it was 0.468 µM; with OVCAR-3 ovarian, 0.313 µM; in the assay with NCI-H23 lung, 0.609 µM; in the assay with KM12 colon it was 0.396 µM; in the assay on SK-MEL-28 melanoma, 0.667 µM. Further, the GI50 in the assay with A498 renal was 0.281 µM; with UACC-62 melanoma, 0.55 µM; in the assay on HCT-116 colon, 0.535 µM. In addition, the TGI is 0.673 µM with HL-60(TB) leukemia; 87.6 µM in the assay with MALME-3M melanoma; above 100 µM with EKVX NSCLC; 1.14 µM with OVCAR-3 ovarian; above 100 µM in the assay on NCI-H23 lung; above 89.6 µM in the assay with KM12 colon. In addition, the TGI was above 100 µM with SK-MEL-28 melanoma, 15.1 µM in the assay on A498 renal, above 100 µM in the assay on UACC-62 melanoma and above 100 µM with HCT-116 colon.
In the case of `CCCCCCCCCCC(O)C1CCC(C(O)CCC(O)C2CCC(CCCCCCC[C@H](O)CC3=C[C@@H](C)OC3=O)O2)O1` (some centres undefined), the TGI was 13.4 µM in the assay on HL-60(TB) leukemia; above 100 µM in the assay with MALME-3M melanoma; above 100 µM in the assay with EKVX NSCLC; 45 µM in the assay with OVCAR-3 ovarian; 69.4 µM with NCI-H23 lung; 68.1 µM in the assay on KM12 colon. Besides, the TGI in the assay on SK-MEL-28 melanoma is above 100 µM; in the assay on A498 renal, above 82 µM; with UACC-62 melanoma it was above 100 µM; in the assay with HCT-116 colon it was above 53.4 µM. In addition, the GI50 in the assay with EKVX NSCLC is 4.16 µM; in the assay on UACC-62 melanoma, 0.466 µM; in the assay with HCT-116 colon it was 3.48 µM.
`C=CCN(CC=C)C(=O)c1cc(C)nc2c1c(=O)n(-c1ccccc1)c(=O)n2CC(O)CN1CCN(c2ncccn2)CC1` (centres undefined): the GI50 with HL-60(TB) leukemia, in the assay with MALME-3M melanoma, with EKVX NSCLC, with OVCAR-3 ovarian, in the assay with NCI-H23 lung and in the assay with KM12 colon was above 100 µM each time. Also, the GI50 with SK-MEL-28 melanoma is 60.9 µM; in the assay with A498 renal it was above 100 µM; with UACC-62 melanoma, above 100 µM; with HCT-116 colon, above 100 µM. For the same compound, the TGI in the assay with HL-60(TB) leukemia, with MALME-3M melanoma, with EKVX NSCLC, in the assay on OVCAR-3 ovarian, with NCI-H23 lung and in the assay with KM12 colon was above 100 µM in each case. The TGI in the assay on SK-MEL-28 melanoma, with A498 renal, in the assay on UACC-62 melanoma and in the assay with HCT-116 colon was above 100 µM each time.
Consider `C=CCC(C(=O)O)c1ccccc1` (centres undefined), for which the TGI in the assay on HL-60(TB) leukemia, in the assay with MALME-3M melanoma, with EKVX NSCLC, in the assay on OVCAR-3 ovarian, with NCI-H23 lung and in the assay on KM12 colon was above 100 µM throughout. Moreover, the TGI with SK-MEL-28 melanoma, in the assay with A498 renal, in the assay with UACC-62 melanoma and in the assay with HCT-116 colon was above 100 µM in each case.
